Data as given in US20100189701A1, “METHODS AND COMPOSITIONS TO TREAT ARRHYTHMIAS” (priority 2007, published 2010).

What was measured:
MMP-7 = details: clinically relevant dosages; cited from earlier work
epicardial border zone = assay: Canine infarct epicardial border zone, electrograms and microelectrode study; format: in vivo, dog; details: dog, in vivo
[1] = system: neonatal rat ventricular myocyte cultures; assay: Conduction velocity in neonatal rat ventricular myocyte cultures on multi-electrode array; format: cell-based
HCN2 induced current = assay: Autonomic agonists on HCN2 induced current in hMSCs; format: cell-based
[2] = system: monomorphic ventricular tachycardia; details: one week after gene transfer; cited from earlier work
[3] = Sodium channel steady state inactivation (literature values); details: depolarization to −65 mV
Description: Since slow conduction is an essential feature of reentrant cardiac arrhythmias, it seems worth considering other mammalian sodium channels that might have more favorable properties than the cardiac Na channel in circumstances that favor slow conduction. One such circumstance is membrane depolarization and so the voltage dependence of steady state inactivation is of interest. Cohen Table I provides a comparison of the midpoints for steady state inactivation and slope factor for the cardiac and skeletal muscle sodium channels and a specific mutant of the skeletal muscle channel (G1306E). […] Thus, if cardiac muscle is depolarized to −65 mV, virtually all cardiac sodium channels would be inactivated, while a similar depolarization would leave almost half of normal skeletal muscle sodium channels available. This observation thus relates to a method of the present invention that the use of alternative sodium channels with more favorable biophysical properties serve as a useful antiarrhythmic therapy.
Besides existing sodium channels, much has been learned from structure-function studies in which specific amino acids have been mutated. An extensive study of the S4 domain of the skeletal muscle sodium channel was conducted by Haywood et al. (1996), J. Gen. Physiol. 107, 559-576 in an attempt to understand the origins of enhanced excitability in inherited human myotonia. […]

[4] = cited from earlier work
hMSCs = assay: Patch clamp of If in hMSCs transfected with mHCN2; format: cell-based, human
Description: FIG. 4: Example of loading hMSC with a gene of interest, studying it biophysically and determining its effect on the heart. Panels A-C study functional expression of If in hMSCs transfected via electroporation with mHCN2 gene. If was expressed in hMSCs transfected with the mHCN2 gene (B) but not in nontransfected stem cells (A). C, Fit by the Boltzmann equation to the normalized tail currents of If gives a midpoint of −91.8+/−0.9 mV and a slope of 8.8+/−0.5 mV (n=9). If was fully activated around −140 mV with an activation threshold of −60 mV. […] Voltage protocol was to hold at −30 mV and hyperpolarize for 1.5 seconds to voltages between −40 and −160 mV in 10-mV increments followed by a 1.5-second voltage step to +20 mV to record the tail currents. Panels D-E show function of hMSCs loaded with HCN2 gene 10 days after injection into canine LV anterior wall in dog in complete heart block. Panels D, placebo experiment, dog injected with saline. […] Panels E, dog injected with approximately 1.2 million hMSCs loaded with HCN2.

[5] = system: neonatal and adult rat ventricular myocytes; details: adenoviral expression; cited from earlier work

Molecule: COc1cc2ncnc(Nc3ccc(F)c(Cl)c3)c2cc1OCCCN1CCOCC1 [Gefitinib]
- MMP-7 activity (MMP-7): inhibits MMP-7 activity

Molecule: NC1=N[C@H](O)[C@H]2[C@H]3O[C@]4(O)O[C@@H]([C@@H](O)[C@@]2(N1)[C@@H]4O)[C@]3(O)CO [TTX, tetrodotoxin]
- Vmax and membrane responsiveness response (epicardial border zone): significant response to TTX
- conduction velocity decrease [1]: 20%

Molecule: CC(C)NCC(O)c1ccc(O)c(O)c1 (stereo not drawn) [isoproterenol]
- effect on expressed HCN2 current (HCN2 induced current): has a direct effect on the expressed current

Molecule: Cx43: connexin
- animals showing no inducible monomorphic VT [2]: 4 of 5

Molecule: p-conotoxin GIIIA [μ-CTX GIIIA]
- effect on CV [1]: CV is reduced in SkM1 cultures to the level recorded in GFP cultures

Molecule: skM1(G1306E): specific mutant of the skeletal muscle sodium channel
- sodium channels available [3]: more than 70%
- inactivation midpoint ([4]; as stated in Example 16 group description): −55 mV
- activation midpoint ([4]; as worded): −57 mV
- Slope factor ([4]; steady state inactivation): −5.2 mV

B1: mHCN2: pacemaker channel gene (protein, UniProt O88703 1-863, looked up)
Potassium/sodium …: MDARGGGGRPGDSPGTTPAPGPPPPPPPPAPPQPQPPPAPPPNPTTPSHPESADEPGPRARLCSRDSACTPGAAKGGANGECGRGEPQCSPEGPARGPKVSFSCRGAASGPSAAEEAGSEEAGPAGEPRGSQASFLQRQFGALLQPGVNKFSLRMFGSQKAVEREQERVKSAGAWIIHPYSDFRFYWDFTMLLFMVGNLIIIPVGITFFKDETTAPWIVFNVVSDTFFLMDLVLNFRTGIVIEDNTEIILDPEKIKKKYLRTWFVVDFVSSIPVDYIFLIVEKGIDSEVYKTARALRIVRFTKILSLLRLLRLSRLIRYIHQWEEIFHMTYDLASAVMRICNLISMMLLLCHWDGCLQFLVPMLQDFPSDCWVSINNMVNHSWSELYSFALFKAMSHMLCIGYGRQAPESMTDIWLTMLSMIVGATCYAMFIGHATALIQSLDSSRRQYQEKYKQVEQYMSFHKLPADFRQKIHDYYEHRYQGKMFDEDSILGELNGPLREEIVNFNCRKLVASMPLFANADPNFVTAMLTKLKFEVFQPGDYIIREGTIGKKMYFIQHGVVSVLTKGNKEMKLSDGSYFGEICLLTRGRRTASVRADTYCRLYSLSVDNFNEVLEEYPMMRRAFETVAIDRLDRIGKKNSILLHKVQHDLSSGVFNNQENAIIQEIVKYDREMVQQAELGQRVGLFPPPPPPQVTSAIATLQQAVAMSFCPQVARPLVGPLALGSPRLVRRAPPGPLPPAASPGPPAASPPAAPSSPRAPRTSPYGVPGSPATRVGPALPARRLSRASRPLSASQPSLPHGVPAPSPAASARPASSSTPRLGPAPTARTAAPSPDRRDSASPGAASGLDPLDSARSRLSSNL
- activation threshold (hMSCs): −60 mV
- voltage of full activation (hMSCs): around −140 mV
- midpoint of If activation (Boltzmann fit to tail currents) (hMSCs; hMSCs transfected via electroporation, n=9): −91.8+/−0.9 mV
- slope of If activation (hMSCs; n=9): 8.8+/−0.5 mV
- voltage dependence of activation, neonatal vs adult myocytes [5]: about 20 mV

B2: HERG-G628S: dominant negative HERG mutant (protein, UniProt Q12809 1-1159, looked up, variant G628S)
Voltage-gated inwardly …: MPVRRGHVAPQNTFLDTIIRKFEGQSRKFIIANARVENCAVIYCNDGFCELCGYSRAEVMQRPCTCDFLHGPRTQRRAAAQIAQALLGAEERKVEIAFYRKDGSCFLCLVDVVPVKNEDGAVIMFILNFEVVMEKDMVGSPAHDTNHRGPPTSWLAPGRAKTFRLKLPALLALTARESSVRSGGAGGAGAPGAVVVDVDLTPAAPSSESLALDEVTAMDNHVAGLGPAEERRALVGPGSPPRSAPGQLPSPRAHSLNPDASGSSCSLARTRSRESCASVRRASSADDIEAMRAGVLPPPPRHASTGAMHPLRSGLLNSTSDSDLVRYRTISKIPQITLNFVDLKGDPFLASPTSDREIIAPKIKERTHNVTEKVTQVLSLGADVLPEYKLQAPRIHRWTILHYSPFKAVWDWLILLLVIYTAVFTPYSAAFLLKETEEGPPATECGYACQPLAVVDLIVDIMFIVDILINFRTTYVNANEEVVSHPGRIAVHYFKGWFLIDMVAAIPFDLLIFGSGSEELIGLLKTARLLRLVRVARKLDRYSEYGAAVLFLLMCTFALIAHWLACIWYAIGNMEQPHMDSRIGWLHNLGDQIGKPYNSSGLGGPSIKDKYVTALYFTFSSLTSVGFSNVSPNTNSEKIFSICVMLIGSLMYASIFGNVSAIIQRLYSGTARYHTQMLRVREFIRFHQIPNPLRQRLEEYFQHAWSYTNGIDMNAVLKGFPECLQADICLHLNRSLLQHCKPFRGATKGCLRALAMKFKTTHAPPGDTLVHAGDLLTALYFISRGSIEILRGDVVVAILGKNDIFGEPLNLYARPGKSNGDVRALTYCDLHKIHRDDLLEVLDMYPEFSDHFWSSLEITFNLRDTNMIPGSPGSTELEGGFSRQRKRKLSFRRRTDKDTEQPGEVSALGPGRAGAGPSSRGRPGGPWGESPSSGPSSPESSEDEGPGRSSSPLRLVPFSSPRPPGEPPGGEPLMEDCEKSSDTCNPLSGAFSGVSNIFSFWGDSRGRQYQELPRCPAPTPSLLNIPLSSPGRRPRGDVESRLDALQRQLNRLETRLSADMATVLQLLQRQMTLVPPAYSAVTTPGPGPTSTSPLLPVSPLPTLTLDSLSQVSQFMACEELPPGAPELPQEGPTRRLSLPGQLGALTSQPLHRHGSDPGS
- animals showing no inducible monomorphic VT [2]: 5 of 5

B3: ERG3: delayed rectifier with steady state window current (protein, UniProt Q9NS40 1-1196, looked up)
Voltage-gated inwardly …: MPVRRGHVAPQNTFLGTIIRKFEGQNKKFIIANARVQNCAIIYCNDGFCEMTGFSRPDVMQKPCTCDFLHGPETKRHDIAQIAQALLGSEERKVEVTYYHKNGSTFICNTHIIPVKNQEGVAMMFIINFEYVTDNENAATPERVNPILPIKTVNRKFFGFKFPGLRVLTYRKQSLPQEDPDVVVIDSSKHSDDSVAMKHFKSPTKESCSPSEADDTKALIQPSKCSPLVNISGPLDHSSPKRQWDRLYPDMLQSSSQLSHSRSRESLCSIRRASSVHDIEGFGVHPKNIFRDRHASEDNGRNVKGPFNHIKSSLLGSTSDSNLNKYSTINKIPQLTLNFSEVKTEKKNSSPPSSDKTIIAPKVKDRTHNVTEKVTQVLSLGADVLPEYKLQTPRINKFTILHYSPFKAVWDWLILLLVIYTAIFTPYSAAFLLNDREEQKRRECGYSCSPLNVVDLIVDIMFIIDILINFRTTYVNQNEEVVSDPAKIAIHYFKGWFLIDMVAAIPFDLLIFGSGSDETTTLIGLLKTARLLRLVRVARKLDRYSEYGAAVLMLLMCIFALIAHWLACIWYAIGNVERPYLTDKIGWLDSLGQQIGKRYNDSDSSSGPSIKDKYVTALYFTFSSLTSVGFGNVSPNTNSEKIFSICVMLIGSLMYASIFGNVSAIIQRLYSGTARYHMQMLRVKEFIRFHQIPNPLRQRLEEYFQHAWTYTNGIDMNMVLKGFPECLQADICLHLNQTLLQNCKAFRGASKGCLRALAMKFKTTHAPPGDTLVHCGDVLTALYFLSRGSIEILKDDIVVAILGKNDIFGEMVHLYAKPGKSNADVRALTYCDLHKIQREDLLEVLDMYPEFSDHFLTNLELTFNLRHESAKADLLRSQSMNDSEGDNCKLRRRKLSFESEGEKENSTNDPEDSADTIRHYQSSKRHFEEKKSRSSSFISSIDDEQKPLFSGIVDSSPGIGKASGLDFEETVPTSGRMHIDKRSHSCKDITDMRSWERENAHPQPEDSSPSALQRAAWGISETESDLTYGEVEQRLDLLQEQLNRLESQMTTDIQTILQLLQKQTTVVPPAYSMVTAGSEYQRPIIQLMRTSQPEASIKTDRSFSPSSQCPEFLDLEKSKLKSKESLSSGVHLNTASEDNLTSLLKQDSDLSLELHLRQRKTYVHPIRHPSLPDSSLSTVGIVGLHRHVSDPGLPGK
- potential of maximal steady state conductance (Xenopus oocytes): −50 mV
- steady state window conductance vs other ERG family members (Xenopus oocytes): largest steady state conductance
